According to patent publication US20240270736A1, “MACROCYCLIC HETEROCYCLES AND USES THEREOF” (Kumquat Biosciences Inc., priority 2022, published 2024):

Assays:
Type in all cases: binding
wildtype KRAS = target: T1, wildtype KRAS (Homo sapiens, UniProt P01116); test: HTRF assay, interaction of wildtype KRAS with SOS1; conditions: Ras::SOS1 interaction, read-out: Inhibition of KRAS WT (IC50)
T1 construct: made in house; host or cells: E. coli, e.g. BL21 (DE3)
Source text: (§1) This assay can be also used to assess a selective inhibition or reduction of signaling output of a mutant Ras protein relative to a wildtype, or relative to a different mutant Ras protein. For example, the equilibrium interaction of wildtype Kras or K-Ras mutant (e.g., wildtype or a mutant thereof) with SOS1 (e.g., hSOS1) can be assessed as a proxy or an indication for a subject compound's ability to bind and inhibit Ras protein. The HTRF assay detects from (i) a fluorescence resonance energy transfer (FRET) donor (e.g., antiGST-Europium) that is bound to GST-tagged K-Ras mutant to (ii) a FRET acceptor (e.g., anti-6His-XL665) bound to a His-tagged hSOS1.
(§2) The assay buffer can contain ˜5 mM HEPES pH 7.4, ˜150 mM NaCl, ˜ 1 mM DTT, 0.05% BSA and 0.0025% (v/v) Igepal. A Ras working solution is prepared in an assay buffer containing typically a suitable amount of the protein construct (e.g., GST-tagged K-Ras mutant) and the FRET donor (e.g., antiGST-Eu(K) from Cisbio, France). A SOS1 working solution is prepared in an assay buffer containing suitable amount of the protein construct (e.g., His-hSOS1) and the FRET acceptor (e.g., anti-6His-XL665 from Cisbio, France). A suitable amount of the protein construct will depend on the range of activity or range of IC50 values being detected or under investigation. For detecting an IC50 within a range of 500 nM, the protein constructs of the same range of molarity can be utilized.
(§3) A fixed volume of DMSO with or without test compound is transferred into a 384-well plate. Ras working solution is added to all wells of the test plate. SOS1 working solution is added to all wells except for those that are subsequently filled with inhibitor control solution. Upon incubation for about 10 minutes or longer, the fluorescence is measured with a M1000Pro plate reader (Tecan) using HTRF detection (excitation 337 nm, emission 1: 620 nm, emission 2: 665 nm). Compounds are tested in duplicate at different concentrations (for example, 10 μM, 2.5 μM, 0.63 μM, 0.16 μM, 0.04 μM, 0.01 μM test compound). The ratiometric data (i.e., emission 2 divided by emission 1) is used to calculate IC50 values against Ras using GraphPad Prism (GraphPad software). Signaling output measured in terms of IC50 values can be obtained and a ratio of IC50 against one mutant relative to another mutant can be calculated. For instance, a selective reduction of K-Ras G12D signaling output can be evidenced by a ratio greater than one. In particular, a selective reduction of K-Ras G12D signaling relative to K-Ras WT signaling is evidenced if the ratio of IC50 (against K-Ras WT) to IC50 (against K-Ras G12D) is greater than 1.

KRAS G12D = target: T2, KRAS G12D (Homo sapiens, UniProt P01116, G12D); test: HTRF assay, interaction of KRAS G12D with SOS1; conditions: Ras::SOS1 interaction, read-out: Inhibition of KRAS G12D (IC50)
T2 construct: made in house; host or cells: E. coli, e.g. BL21 (DE3)
Source text: as §1, §2, §3

KRAS G12V = target: T3, KRAS G12V (Homo sapiens, UniProt P01116, G12V); test: HTRF assay, interaction of KRAS G12V with SOS1; conditions: Ras::SOS1 interaction, read-out: Inhibition of KRAS G12V (IC50)
T3 construct: made in house; host or cells: E. coli, e.g. BL21 (DE3)
Source text: as §1, §2, §3

T1 sequence (P01116 1-188 isoform P01116-2): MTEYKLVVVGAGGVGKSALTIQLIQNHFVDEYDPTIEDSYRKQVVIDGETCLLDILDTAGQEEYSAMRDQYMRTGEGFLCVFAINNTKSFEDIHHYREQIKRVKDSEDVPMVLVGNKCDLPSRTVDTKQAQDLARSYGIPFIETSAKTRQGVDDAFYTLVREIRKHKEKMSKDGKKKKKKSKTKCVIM
T3 sequence (P01116 1-188 isoform P01116-2 G12V): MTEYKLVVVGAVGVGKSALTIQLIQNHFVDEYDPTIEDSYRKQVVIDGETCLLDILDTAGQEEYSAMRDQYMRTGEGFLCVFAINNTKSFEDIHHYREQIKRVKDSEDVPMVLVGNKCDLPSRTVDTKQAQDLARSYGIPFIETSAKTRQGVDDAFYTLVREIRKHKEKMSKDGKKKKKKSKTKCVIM
T2 sequence (P01116 1-188 isoform P01116-2 G12D): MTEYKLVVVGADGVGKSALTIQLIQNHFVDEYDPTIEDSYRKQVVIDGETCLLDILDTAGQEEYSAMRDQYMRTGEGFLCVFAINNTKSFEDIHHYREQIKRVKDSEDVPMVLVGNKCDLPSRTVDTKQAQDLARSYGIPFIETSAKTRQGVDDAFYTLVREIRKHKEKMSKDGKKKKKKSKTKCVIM

Structure (SMILES) | IC50 (wildtype KRAS) [µM] | IC50 (KRAS G12D) [µM] | IC50 (KRAS G12V) [µM]
CN(C)CC1CC=CCCN2c3nc(nc4c(F)c(-c5ccc(F)c6sc(N)c(C#N)c56)c(Cl)c(c34)OC[C@@H]2C(F)F)O1 (mixture of isomers) [Compound 107, 2-amino-4-((11R)-14-chloro-11-(difluoromethyl)-4-((dimethylamino)methyl)-16-fluoro-4,5,8,9,11,12-hexahydro-2,17-(azeno)benzo[6,7][1,4]oxazepino[5,4-d][1]oxa[3,5]diazacycloundecin-15-yl)-7-fluorobenzo[b]thiophene-3-carbonitrile] | ≤ 5 | ≤ 5 | 
CN(C)CC1CC/C=C/CCN2CCOc3c(Cl)c(-c4ccc(F)c5sc(N)c(C#N)c45)c(F)c4nc(nc2c34)O1 (stereo not shown) [Compound 101, (E)-2-amino-4-(15-chloro-4-((dimethylamino)methyl)-17-fluoro-5,6,9,10,12,13-hexahydro-4H-2,18-(azeno)benzo[6,7][1,4]oxazepino[5,4-d][1]oxa[3,5]diazacyclododecin-16-yl)-7-fluorobenzo[b]thiophene-3-carbonitrile] | ≤ 5 | ≤ 5 | ≤ 5
CN(C)CC1/C=C/CCN2CCOc3c(Cl)c(-c4ccc(F)c5sc(N)c(C#N)c45)c(F)c4nc(nc2c34)OC1 (stereo not shown) [Compound 110, (E)-2-amino-4-(14-chloro-5-((dimethylamino)methyl)-16-fluoro-4,5,8,9,11,12-hexahydro-2,17-(azeno)benzo[6,7][1,4]oxazepino[5,4-d][1]oxa[3,5]diazacycloundecin-15-yl)-7-fluorobenzo[b]thiophene-3-carbonitrile] | ≤ 5 | ≤ 5 | ≤ 5
N#Cc1c(N)sc2c(F)ccc(-c3c(Cl)c4c5c6nc(nc5c3F)OCCNC(=O)CCN6CCO4)c12 [Compound 112, 2-amino-4-(14-chloro-16-fluoro-7-oxo-4,5,6,7,8,9,11,12-octahydro-2,17-(azeno)benzo[6,7][1,4]oxazepino[5,4-d][1]oxa[3,5,9]triazacycloundecin-15-yl)-7-fluorobenzo[b]thiophene-3-carbonitrile] | ≤ 5 | ≤ 5 | ≤ 5
CN1CCCCOc2nc3c4c(c(Cl)c(-c5ccc(F)c6sc(N)c(C#N)c56)c(F)c4n2)OCCN3CCCC1 [Compound 113, 2-amino-4-(17-chloro-19-fluoro-8-methyl-5,6,7,8,9,10,11,12,14,15-decahydro-4H-2,20-(azeno)benzo[6,7][1,4]oxazepino[5,4-d][1]oxa[3,5,10]triazacyclotetradecin-18-yl)-7-fluorobenzo[b]thiophene-3-carbonitrile] |  |  | ≤ 5
CN(C)CC1CC=CCCN2CCOc3c(Cl)c(-c4ccc(F)c5sc(N)c(C#N)c45)c(F)c4nc(nc2c34)O1 (stereo not shown) [Compound 116, 2-amino-4-(14-chloro-4-((dimethylamino)methyl)-16-fluoro-4,5,8,9,11,12-hexahydro-2,17-(azeno)benzo[6,7][1,4]oxazepino[5,4-d][1]oxa[3,5]diazacycloundecin-15-yl)-7-fluorobenzo[b]thiophene-3-carbonitrile] | ≤ 5 | ≤ 5 | ≤ 5
CN(C)CC1CCCCCCN2CCOc3c(Cl)c(-c4ccc(F)c5sc(N)c(C#N)c45)c(F)c4nc(nc2c34)O1 (stereo not shown) [Compound 117, 2-amino-4-(15-chloro-4-((dimethylamino)methyl)-17-fluoro-5,6,7,8,9,10,12,13-octahydro-4H-2,18-(azeno)benzo[6,7][1,4]oxazepino[5,4-d][1]oxa[3,5]diazacyclododecin-16-yl)-7-fluorobenzo[b]thiophene-3-carbonitrile] | ≤ 5 | ≤ 5 | ≤ 5
CN(C)C[C@H]1CCNC(=O)CCN2CCOc3c(Cl)c(-c4ccc(F)c5sc(N)c(C#N)c45)c(F)c4nc(nc2c34)O1 [Compound 123, 2-amino-4-((4R)-15-chloro-4-((dimethylamino)methyl)-17-fluoro-8-oxo-5,6,7,8,9,10,12,13-octahydro-4H-2,18-(azeno)benzo[6,7][1,4]oxazepino[5,4-d][1]oxa[3,5,9]triazacyclododecin-16-yl)-7-fluorobenzo[b]thiophene-3-carbonitrile] | ≤ 5 | ≤ 5 | ≤ 5
CN(C)CC1CNC(=O)CCN2CCOc3c(Cl)c(-c4ccc(F)c5sc(N)c(C#N)c45)c(F)c4nc(nc2c34)O1 (stereo not shown) [Compound 128, 2-amino-4-(14-chloro-4-((dimethylamino)methyl)-16-fluoro-7-oxo-4,5,6,7,8,9,11,12-octahydro-2,17-(azeno)benzo[6,7][1,4]oxazepino[5,4-d][1]oxa[3,5,9]triazacycloundecin-15-yl)-7-fluorobenzo[b]thiophene-3-carbonitrile] | ≤ 5 | ≤ 5 | ≤ 5

Other lines, results leading:

IC50 (wildtype KRAS) [µM] | IC50 (KRAS G12D) [µM] | IC50 (KRAS G12V) [µM] | Structure (SMILES)
≤ 5 | ≤ 5 | ≤ 5 | C[C@H]1COc2c(Cl)c(-c3ccc(F)c4sc(N)c(C#N)c34)c(F)c3nc4nc(c23)N1CCC=CCC(CN(C)C)O4 (mixture of isomers) [Compound 150, 2-amino-4-((11S)-14-chloro-4-((dimethylamino)methyl)-16-fluoro-11-methyl-4,5,8,9,11,12-hexahydro-2,17-(azeno)benzo[6,7][1,4]oxazepino[5,4-d][1]oxa[3,5]diazacycloundecin-15-yl)-7-fluorobenzo[b]thiophene-3-carbonitrile]
≤ 5 | ≤ 5 | ≤ 5 | C[C@H]1COc2c(Cl)c(-c3ccc(F)c4sc(N)c(C#N)c34)c(F)c3nc4nc(c23)N1CCC=CCC(CN(C)C)O4 (single isomer, unassigned) [Compound 103]
≤ 5 | ≤ 5 | ≤ 5 | CN1C[C@@H]2C[C@H]1COc1nc3c4c(c(Cl)c(-c5ccc(F)c6sc(N)c(C#N)c56)c(F)c4n1)OCCN3CCCO2 (single isomer, unassigned) [Compound 135]
≤ 5 | ≤ 5 | ≤ 5 | CN(C)CCC1CC=CCCN2CCOc3c(Cl)c(-c4ccc(F)c5sc(N)c(C#N)c45)c(F)c4nc(nc2c34)O1 (single isomer, unassigned) [Compound 148, 2-amino-4-(14-chloro-4-(2-(dimethylamino)ethyl)-16-fluoro-4,5,8,9,11,12-hexahydro-2,17-(azeno)benzo[6,7][1,4]oxazepino[5,4-d][1]oxa[3,5]diazacycloundecin-15-yl)-7-fluorobenzo[b]thiophene-3-carbonitrile]
≤ 5 | ≤ 5 | ≤ 5 | CN(C)[C@@H]1CNC(=O)CCN2CCOc3c(Cl)c(-c4ccc(F)c5sc(N)c(C#N)c45)c(F)c4nc(nc2c34)OC1 [Compound 104, 2-amino-4-((5R)-15-chloro-5-(dimethylamino)-17-fluoro-8-oxo-5,6,7,8,9,10,12,13-octahydro-4H-2,18-(azeno)benzo[6,7][1,4]oxazepino[5,4-d][1]oxa[3,5,9]triazacyclododecin-16-yl)-7-fluorobenzo[b]thiophene-3-carbonitrile]
 |  | ≤ 5 | CN(C)CC1CC=CCCN2c3nc(nc4c(F)c(-c5ccc(F)c6sc(N)c(C#N)c56)c(Cl)c(c34)OC[C@@H]2C(F)F)O1 (stereo partly drawn) [Compound 115, 2-amino-4-((11R)-14-chloro-11-(difluoromethyl)-4-((dimethylamino)methyl)-16-fluoro-4,5,8,9,11,12-hexahydro-2,17-(azeno)benzo[6,7][1,4]oxazepino[5,4-d][1]oxa[3,5]diazacycloundecin-15-y1)-7-fluorobenzo[b]thiophene-3-carbonitrile]
≤ 5 | ≤ 5 | ≤ 5 | CNCCC1CC=CCCN2CCOc3c(Cl)c(-c4ccc(F)c5sc(N)c(C#N)c45)c(F)c4nc(nc2c34)O1 (stereo not shown) [Compound 130, 2-amino-4-(14-chloro-16-fluoro-4-(2-(methylamino)ethyl)-4,5,8,9,11,12-hexahydro-2,17-(azeno)benzo[6,7][1,4]oxazepino[5,4-d][1]oxa[3,5]diazacycloundecin-15-yl)-7-fluorobenzo[b]thiophene-3-carbonitrile]
